{"source": "patent US10716774B1", "about": "“Pharmaceutical compositions containing isotretinoin with improved dissolution profile and enhanced stability” (Yale Pharmaceuticals LLC, priority 2018, dated 2020)", "origin": "cited, not measured here", "settings": "after multiple dosing, in man"}
{"smiles": "CC1=C(/C=C/C(C)=C/C=C/C(C)=C/C(=O)O)C(C)(C)CCC1=O", "note": "[4-oxo-isotretinoin]", "values": [{"measurement": "plasma concentration relative to that of the parent drug", "value": "about 4 fold"}]}
